# Legend:
# Type in all cases: cell-based
# Escherichia coli NIHJ = assay: MIC against standard strain, plate method; conditions: unit assumed
# Experimental: (§1) The minimum inhibitory concentrations (MIC) was determined by the plate method disclosed in "Chemotherapy" (Japan), Vol. 16, (1968), pages 98 - 99. The culture medium used was a Heart infusion agar (pH 7.4). The number of the cells per plate used in the inoculum as 10^4 (10^6 cells/ml).
# Klebsiella pneumoniae [1] = assay: MIC against standard strain, plate method; conditions: unit assumed
# Experimental: as §1
# Proteus vulgaris 3027 = assay: MIC against standard strain, plate method; conditions: Proteus vulgaris 3027, standard strain; unit assumed
# Experimental: as §1
# [2] = system: Pseudomonas aeruginosa I.F.O.; assay: MIC against standard strain, plate method; conditions: unit assumed
# Experimental: as §1
# [3] = system: Staphylococcus aureus 209p; assay: MIC against standard strain, plate method; conditions: unit assumed
# Experimental: as §1
# Staphylococcus aureus = assay: MIC against clinical isolates; conditions: unit assumed
# Escherichia coli = assay: MIC against clinical isolates; conditions: unit assumed
# Pseudomonas aeruginosa = assay: MIC against clinical isolates; conditions: unit assumed
# Klebsiella pneumoniae [4] = assay: MIC against clinical isolates; conditions: unit assumed
smiles,measurement,setting,value
"CCN1CCN(C(=O)NC(C(=O)NC2C(=O)N3C(C(=O)O)=C(CSc4cccc[n+]4[O-])CSC23)c2ccccc2)C(=O)C1=O (single isomer, unassigned) [compound 70]",MIC,Escherichia coli NIHJ,1.57 µg/mL
same,MIC,Klebsiella pneumoniae [1],1.56 µg/mL
same,MIC,Proteus vulgaris 3027,< 0.79 µg/mL
same,MIC,[2],100 µg/mL
same,MIC,[3],< 0.79 µg/mL
CC1(C)S[C@@H]2[C@H](NC(=O)[C@H](NC(=O)N3CC(=O)N(Cc4ccccc4)CC3=O)c3ccccc3)C(=O)N2[C@H]1C(=O)O [compound 35],MIC,Escherichia coli NIHJ,6.25 µg/mL
same,MIC,Klebsiella pneumoniae [1],25 µg/mL
same,MIC,Proteus vulgaris 3027,25 µg/mL
same,MIC,[2],100 µg/mL
same,MIC,[3],1.57 µg/mL
"CC(=O)OCCN1CCN(C(=O)N[C@@H](C(=O)N[C@@H]2C(=O)N3[C@@H]2SC(C)(C)[C@@H]3C(=O)O)c2ccccc2)C(=O)C1=O (single isomer, unassigned) [compound 41]",MIC,Escherichia coli NIHJ,< 1.57 µg/mL
same,MIC,Klebsiella pneumoniae [1],6.25 µg/mL
same,MIC,Proteus vulgaris 3027,< 1.57 µg/mL
same,MIC,[2],25 µg/mL
same,MIC,[3],< 1.57 µg/mL
CCCCCCN1CCN(C(=O)N[C@@H](C(=O)N[C@@H]2C(=O)N3[C@@H]2SC(C)(C)[C@@H]3C(=O)O)c2ccccc2)CC1=O [compound 29],MIC,Escherichia coli NIHJ,< 1.57 µg/mL
same,MIC,Klebsiella pneumoniae [1],3.13 µg/mL
same,MIC,Proteus vulgaris 3027,3.13 µg/mL
same,MIC,[2],12.5 µg/mL
same,MIC,[3],3.13 µg/mL
CC1(C)SC2C(NC(=O)C(NC(=O)N3CCNC(=O)C3=O)c3ccccc3)C(=O)N2C1C(=O)O (centres unmarked) [compound 59],MIC,Escherichia coli NIHJ,< 1.57 µg/mL
same,MIC,Klebsiella pneumoniae [1],200 µg/mL
same,MIC,Proteus vulgaris 3027,3.13 µg/mL
same,MIC,[2],25 µg/mL
same,MIC,[3],< 1.57 µg/mL
CN1CCN(C(=O)N[C@@H](C(=O)N[C@@H]2C(=O)N3[C@@H]2SC(C)(C)[C@@H]3C(=O)O)c2ccccc2)CC1=O [compound 17],MIC,Escherichia coli NIHJ,< 1.57 µg/mL
same,MIC,Klebsiella pneumoniae [1],50 µg/mL
same,MIC,Proteus vulgaris 3027,6.25 µg/mL
same,MIC,[2],12.5 µg/mL
same,MIC,[3],< 1.57 µg/mL
CC1(C)S[C@@H]2[C@H](NC(=O)[C@H](NC(=O)N3CC(=O)N(C(=O)c4ccccc4)CC3=O)c3ccccc3)C(=O)N2[C@H]1C(=O)O [compound 34],MIC,Escherichia coli NIHJ,3.13 µg/mL
same,MIC,Klebsiella pneumoniae [1],50 µg/mL
same,MIC,Proteus vulgaris 3027,50 µg/mL
same,MIC,[2],100 µg/mL
same,MIC,[3],1.57 µg/mL
"CN1CCN(C(=O)N[C@@H](C(=O)N[C@@H]2C(=O)N3[C@@H]2SC(C)(C)[C@@H]3C(=O)OCCN2CCCCC2)c2ccccc2)C(=O)C1=O (single isomer, unassigned) [compound 53]",MIC,Escherichia coli NIHJ,< 0.4 µg/mL
same,MIC,Klebsiella pneumoniae [1],25 µg/mL
same,MIC,Proteus vulgaris 3027,0.79 µg/mL
same,MIC,[2],6.25 µg/mL
same,MIC,[3],0.79 µg/mL
CCCCN1CC(=O)N(C(=O)N[C@@H](C(=O)N[C@@H]2C(=O)N3[C@@H]2SC(C)(C)[C@@H]3C(=O)O)c2ccccc2)C(C)C1 (some centres unmarked) [compound 15],MIC,Escherichia coli NIHJ,3.13 µg/mL
same,MIC,Klebsiella pneumoniae [1],6.25 µg/mL
same,MIC,Proteus vulgaris 3027,6.25 µg/mL
same,MIC,[2],50 µg/mL
same,MIC,[3],< 1.57 µg/mL
CCCCN1CCN(C(=O)N[C@@H](C(=O)N[C@@H]2C(=O)N3[C@@H]2SC(C)(C)[C@@H]3C(=O)O)c2ccccc2)CC1=O [compound 18],MIC,Escherichia coli NIHJ,< 1.57 µg/mL
same,MIC,Klebsiella pneumoniae [1],25 µg/mL
same,MIC,Proteus vulgaris 3027,3.13 µg/mL
same,MIC,[2],12.5 µg/mL
same,MIC,[3],< 1.57 µg/mL
"O=C(Cc1cccs1)N[C@@H]1C(=O)N2C(C(=O)[O-])=C(C[n+]3ccccc3)CS[C@H]12 [Cephalorizine, reference compound]",MIC,Staphylococcus aureus; clinical isolate F-1,< 0.4 µg/mL
same,MIC,Staphylococcus aureus; clinical isolate F-2,< 0.4 µg/mL
same,MIC,Staphylococcus aureus; clinical isolate F-3,< 0.4 µg/mL
same,MIC,Staphylococcus aureus; clinical isolate F-4,< 0.4 µg/mL
same,MIC,Staphylococcus aureus; clinical isolate F-5,0.78 µg/mL
same,MIC,Staphylococcus aureus; clinical isolate MS 8588,< 0.4 µg/mL
same,MIC,Staphylococcus aureus; clinical isolate MS 8596,< 0.4 µg/mL
same,MIC,Staphylococcus aureus; clinical isolate MS 8619,< 0.4 µg/mL
same,MIC,Staphylococcus aureus; clinical isolate MS 8684,< 0.4 µg/mL
same,MIC,Staphylococcus aureus; clinical isolate MS 8713,< 0.4 µg/mL
same,MIC,Escherichia coli; clinical isolate GN 3435,3.13 µg/mL
same,MIC,Escherichia coli; clinical isolate GN 3452,3.13 µg/mL
same,MIC,Escherichia coli; clinical isolate GN 3465,50 µg/mL
same,MIC,Escherichia coli; clinical isolate GN 3481,3.13 µg/mL
same,MIC,Escherichia coli; clinical isolate GN 3611,100 µg/mL
same,MIC,Escherichia coli; clinical isolate K-1,3.13 µg/mL
same,MIC,Escherichia coli; clinical isolate K-2,3.13 µg/mL
same,MIC,Escherichia coli; clinical isolate K-3,200 µg/mL
same,MIC,Escherichia coli; clinical isolate K-4,6.25 µg/mL
same,MIC,Pseudomonas aeruginosa; clinical isolate GN 82,> 200 µg/mL
same,MIC,Pseudomonas aeruginosa; clinical isolate GN 163,> 200 µg/mL
same,MIC,Pseudomonas aeruginosa; clinical isolate GN 221,> 200 µg/mL
same,MIC,Pseudomonas aeruginosa; clinical isolate GN 244,> 200 µg/mL
same,MIC,Pseudomonas aeruginosa; clinical isolate GN 376,> 200 µg/mL
same,MIC,Pseudomonas aeruginosa; clinical isolate GN 383,> 200 µg/mL
same,MIC,Pseudomonas aeruginosa; clinical isolate GN 1035,> 200 µg/mL
same,MIC,Pseudomonas aeruginosa; clinical isolate GN 1091,> 200 µg/mL
same,MIC,Pseudomonas aeruginosa; clinical isolate GN 2565,> 200 µg/mL
same,MIC,Pseudomonas aeruginosa; clinical isolate GN 2987,> 200 µg/mL
same,MIC,Pseudomonas aeruginosa; clinical isolate S-1,> 200 µg/mL
same,MIC,Pseudomonas aeruginosa; clinical isolate S-2,> 200 µg/mL
same,MIC,Pseudomonas aeruginosa; clinical isolate S-3,> 200 µg/mL
same,MIC,Pseudomonas aeruginosa; clinical isolate S-4,> 200 µg/mL
same,MIC,Klebsiella pneumoniae [4]; clinical isolate GN 917,3.13 µg/mL
same,MIC,Klebsiella pneumoniae [4]; clinical isolate GN 4081,12.5 µg/mL
same,MIC,Klebsiella pneumoniae [4]; clinical isolate GN 4117,12.5 µg/mL
CC1(C)S[C@@H]2[C@H](NC(=O)[C@H](NC(=O)N3CCN(C(=O)C4CCCCC4)CC3=O)c3ccccc3)C(=O)N2[C@H]1C(=O)O [compound 3],MIC,Escherichia coli NIHJ,< 1.57 µg/mL
same,MIC,Klebsiella pneumoniae [1],3.13 µg/mL
same,MIC,Proteus vulgaris 3027,3.13 µg/mL
same,MIC,[2],100 µg/mL
same,MIC,[3],< 1.57 µg/mL
CC1(C)S[C@@H]2[C@H](NC(=O)[C@H](NC(=O)N3CCN(C(=O)c4ccc(Cl)cc4Cl)CC3=O)c3ccccc3)C(=O)N2[C@H]1C(=O)O [compound 10],MIC,Escherichia coli NIHJ,< 1.57 µg/mL
same,MIC,Klebsiella pneumoniae [1],6.25 µg/mL
same,MIC,Proteus vulgaris 3027,3.13 µg/mL
same,MIC,[2],100 µg/mL
same,MIC,[3],< 1.57 µg/mL
CCCCCC(=O)N1CCN(C(=O)N[C@@H](C(=O)N[C@@H]2C(=O)N3[C@@H]2SC(C)(C)[C@@H]3C(=O)O)c2ccccc2)C(=O)C1 [compound 6],MIC,Escherichia coli NIHJ,3.13 µg/mL
same,MIC,Klebsiella pneumoniae [1],6.25 µg/mL
same,MIC,Proteus vulgaris 3027,6.25 µg/mL
same,MIC,[2],50 µg/mL
same,MIC,[3],3.13 µg/mL
CC1(C)S[C@@H]2[C@H](NC(=O)[C@H](NC(=O)N3CCN(C(=O)C(Cl)Cl)CC3=O)c3ccccc3)C(=O)N2[C@H]1C(=O)O [compound 2],MIC,Escherichia coli NIHJ,< 1.57 µg/mL
same,MIC,Klebsiella pneumoniae [1],12.5 µg/mL
same,MIC,Proteus vulgaris 3027,6.25 µg/mL
same,MIC,[2],50 µg/mL
same,MIC,[3],< 1.57 µg/mL
"CC1(C)S[C@@H]2[C@H](NC(=O)[C@H](NC(=O)N3CCN(C4CCCC4)C(=O)C3)c3ccccc3)C(=O)N2[C@H]1C(=O)O (single isomer, unassigned) [compound 32]",MIC,Escherichia coli NIHJ,< 1.57 µg/mL
same,MIC,Klebsiella pneumoniae [1],12.5 µg/mL
same,MIC,Proteus vulgaris 3027,6.25 µg/mL
same,MIC,[2],12.5 µg/mL
same,MIC,[3],< 1.57 µg/mL
C=C(C)CN1CCN(C(=O)N[C@@H](C(=O)N[C@@H]2C(=O)N3[C@@H]2SC(C)(C)[C@@H]3C(=O)O)c2ccccc2)CC1=O [compound 27],MIC,Escherichia coli NIHJ,< 1.57 µg/mL
same,MIC,Klebsiella pneumoniae [1],25 µg/mL
same,MIC,Proteus vulgaris 3027,3.13 µg/mL
same,MIC,[2],25 µg/mL
same,MIC,[3],< 1.57 µg/mL
"C=CCN1CCN(C(=O)N[C@@H](C(=O)N[C@@H]2C(=O)N3[C@@H]2SC(C)(C)[C@@H]3C(=O)O)c2ccccc2)C(=O)C1=O (single isomer, unassigned) [compound 42]",MIC,Escherichia coli NIHJ,< 1.57 µg/mL
same,MIC,Klebsiella pneumoniae [1],6.25 µg/mL
same,MIC,Proteus vulgaris 3027,< 1.57 µg/mL
same,MIC,[2],12.5 µg/mL
same,MIC,[3],1.57 µg/mL
"O=C(Cc1cccs1)N[C@@H]1C(=O)N2C(C(=O)[O-])=C(C[n+]3ccccc3)CS[C@H]12 [Cephaloridine, reference compound]",MIC,Escherichia coli NIHJ,> 3.13 µg/mL
same,MIC,Klebsiella pneumoniae [1],200 µg/mL
same,MIC,[2],200 µg/mL
same,MIC,[3],< 1.57 µg/mL
"COCOC(=O)[C@@H]1N2C(=O)[C@@H](NC(=O)[C@H](NC(=O)N3CCN(C)C(=O)C3=O)c3ccccc3)[C@H]2SC1(C)C (single isomer, unassigned) [compound 50]",MIC,Escherichia coli NIHJ,< 0.79 µg/mL
same,MIC,Klebsiella pneumoniae [1],6.25 µg/mL
same,MIC,Proteus vulgaris 3027,< 0.79 µg/mL
same,MIC,[2],6.25 µg/mL
same,MIC,[3],< 0.79 µg/mL
CC(=O)NC(=O)N1CCN(C(=O)N[C@@H](C(=O)N[C@@H]2C(=O)N3[C@@H]2SC(C)(C)[C@@H]3C(=O)O)c2ccccc2)C(=O)C1 [compound 11],MIC,Escherichia coli NIHJ,< 1.57 µg/mL
same,MIC,Klebsiella pneumoniae [1],50 µg/mL
same,MIC,Proteus vulgaris 3027,6.25 µg/mL
same,MIC,[2],50 µg/mL
same,MIC,[3],< 1.57 µg/mL
CCN1CC(C)N(C(=O)NC(C(=O)NC2C(=O)N3C(C(=O)O)=C(CSc4nnnn4C)CSC23)c2ccccc2)C(=O)C1=O (centres unmarked) [compound 66],MIC,Escherichia coli NIHJ,< 0.79 µg/mL
same,MIC,Klebsiella pneumoniae [1],0.79 µg/mL
same,MIC,Proteus vulgaris 3027,< 1.57 µg/mL
same,MIC,[2],25 µg/mL
same,MIC,[3],< 0.79 µg/mL
CC1(C)S[C@@H]2[C@H](NC(=O)[C@H](NC(=O)N3CCN(C(=O)c4ccc(Cl)cc4)CC3=O)c3ccccc3)C(=O)N2[C@H]1C(=O)O [compound 8],MIC,Escherichia coli NIHJ,< 1.57 µg/mL
same,MIC,Klebsiella pneumoniae [1],6.25 µg/mL
same,MIC,[3],< 1.57 µg/mL

# Source: US4110327A, “2,3 Diketo-piperazinocarbonylamino alkanoic acids and derivatives” (Toyama Chemical Co., Ltd., priority 1974, dated 1978)
